Laboratory results taken from patent US20260306642A1, “STAT DEGRADERS AND USES THEREOF” (Recludix Pharma, Inc., priority 2023, published 2026).
Where two headings read alike, the source gives them in different places.

Tests used:
STAT3 = molecular target: T1, STAT3 (Homo sapiens, UniProt P40763); assay: STAT3 Fluorescence Polarization (FP) Assay; type: binding
T1 construct: Recombinant STAT3 protein (STAT3(G127-I722))
Procedure: An FP assay was developed to determine IC50 values for test substances.
Recombinant STAT3 protein (STAT3(G127-I722)) at 25 nM was combined with a fluorescently labeled, phosphotyrosine peptide probe (5-FAM-GpYLPQTV-NH2) at 2 nM in FP buffer (10 mM HEPES pH 7.4, 50 mM NaCl, 1 mM EDTA, 0.05% Tween 20, 2 mM DTT). 50 μL of STAT3-probe mixture was added to serial diluted compounds in black, 96-well plates (Greiner BioOne 655076) to a final concentration of 1% DMSO. Reaction components were mixed, and FP was measured after 45-minute incubation at room temperature using a Tecan Spark multimode plate reader. FP signal (mP) was plotted against the log concentration of the test substances and IC50 values were calculated by nonlinear regression analysis using GraphPad Prism software. For STAT3 FP assay, A=≤100 nM; B=>100-1000 nM; C=>1-10 μM; and D=>10 μM.

STAT6 = molecular target: T2, STAT6 (Homo sapiens, UniProt P42226); assay: STAT6 Fluorescence Polarization (FP) Assay; type: binding
T2 construct: Recombinant STAT6 protein (STAT6(W123-T658))
T2 sequence (P42226 123-658): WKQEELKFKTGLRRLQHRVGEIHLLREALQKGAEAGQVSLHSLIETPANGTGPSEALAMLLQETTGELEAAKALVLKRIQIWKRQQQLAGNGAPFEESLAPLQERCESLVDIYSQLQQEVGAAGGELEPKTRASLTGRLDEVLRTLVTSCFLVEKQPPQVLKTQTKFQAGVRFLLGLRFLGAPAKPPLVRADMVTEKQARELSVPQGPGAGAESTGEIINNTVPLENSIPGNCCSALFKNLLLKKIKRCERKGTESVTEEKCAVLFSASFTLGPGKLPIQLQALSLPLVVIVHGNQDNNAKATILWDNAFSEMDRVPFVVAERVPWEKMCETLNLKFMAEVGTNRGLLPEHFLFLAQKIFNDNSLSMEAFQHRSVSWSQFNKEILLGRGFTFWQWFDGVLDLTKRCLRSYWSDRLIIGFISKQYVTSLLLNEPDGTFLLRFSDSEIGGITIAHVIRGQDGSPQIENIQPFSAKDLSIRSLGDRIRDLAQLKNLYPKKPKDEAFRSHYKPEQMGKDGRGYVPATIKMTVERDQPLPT
Procedure: An FP assay was developed to determine IC50 values for test substances. Recombinant STAT6 protein (STAT6(W123-T658)) at 250 nM was combined with a fluorescently labeled, phosphotyrosine peptide probe (5-FAM-ApYKPFQDLI-NH2) at 2 nM in FP buffer (10 mM HEPES pH 7.4, 50 mM NaCl, 1 mM EDTA, 0.05% Tween 20, 2 mM DTT). 50 μL of STAT6-probe mixture was added to serial diluted compounds in black, 96-well plates (Greiner BioOne 655076) to a final concentration of 1% DMSO. Reaction components were mixed, and FP was measured after 45-minute incubation at room temperature using a Tecan Spark multimode plate reader. FP signal (mP) was plotted against the log concentration of the test substances and IC50 values were calculated by nonlinear regression analysis using GraphPad Prism software. For STAT6 FP assay, A=≤300 nM; B=>300-3000 nM; C=>3-30 μM; and D=>30 μM.

pSTAT3 = pSTAT3 (Homo sapiens, UniProt P40763); assay: MSD-pSTAT-PBMC Assay (pSTAT3, IL-6 stimulated); type: cell-based
pSTAT3, sequence (P40763 whole entry): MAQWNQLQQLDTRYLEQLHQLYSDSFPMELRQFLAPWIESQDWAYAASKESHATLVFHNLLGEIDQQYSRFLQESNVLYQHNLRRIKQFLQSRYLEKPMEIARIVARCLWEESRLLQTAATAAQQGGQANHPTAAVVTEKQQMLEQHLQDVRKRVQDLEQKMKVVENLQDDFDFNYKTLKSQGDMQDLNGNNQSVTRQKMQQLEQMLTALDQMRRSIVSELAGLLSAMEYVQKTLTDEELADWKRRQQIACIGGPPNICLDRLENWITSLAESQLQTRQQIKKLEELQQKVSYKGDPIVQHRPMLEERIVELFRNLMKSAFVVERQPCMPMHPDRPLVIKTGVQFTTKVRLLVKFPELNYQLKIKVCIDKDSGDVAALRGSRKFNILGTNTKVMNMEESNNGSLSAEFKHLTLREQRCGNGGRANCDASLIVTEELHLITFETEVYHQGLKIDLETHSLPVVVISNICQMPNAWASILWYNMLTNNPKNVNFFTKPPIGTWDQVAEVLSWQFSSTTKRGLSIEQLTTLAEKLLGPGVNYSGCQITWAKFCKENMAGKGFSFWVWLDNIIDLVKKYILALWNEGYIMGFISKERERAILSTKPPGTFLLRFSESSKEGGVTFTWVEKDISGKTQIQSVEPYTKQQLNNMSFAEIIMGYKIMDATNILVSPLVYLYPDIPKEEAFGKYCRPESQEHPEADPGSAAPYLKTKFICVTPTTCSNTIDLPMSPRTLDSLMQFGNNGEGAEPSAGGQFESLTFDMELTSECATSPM
Text: Cryopreserved Peripheral Blood Mononuclear Cells (PBMC) are from AllCells. Recombinant Human IL-4 and IL-6 are from Peprotech. Mouse monoclonal anti-STAT3 antibody, rabbit monoclonal anti-pY705-STAT3 antibody, rabbit monoclonal Anti-pY641-STAT6 antibody, and lysis buffer are from Cell Signaling Technology (CST). Mouse monoclonal anti-STAT6 antibody is from BioLegend. Assay plates, blocker, and anti-rabbit secondary antibody are from Meso Scale Discovery (MSD).
Cryopreserved PBMCs were thawed out and allowed to recover overnight in IMDM+10% heat-inactivated FBS prior to plating 50,000 (STAT3) or 25,000 (STAT6) cells per well in 96-well U-bottom tissue culture plates. Cells were treated with compound for 3 hrs, then stimulated with 10 ng/mL IL-6 (STAT3) or 1 ng/mL IL-4 (STAT6) for 10 min. Cells were then spun down and washed with ice-cold PBS prior to lysing the cell pellet with 1× lysis buffer (CST) with 1× HALT protease and phosphatase inhibitor cocktail (Thermo). Lysates were transferred to and incubated overnight at 4° C. with shaking in QuickPlex 96-well high bind assay plates (MSD) pre-coated overnight with 30 μL per well of […] mouse monoclonal anti-STAT3 antibody (STAT3) or 2 μg/mL mouse monoclonal anti-STAT6 antibody (STAT6) in 1× PBS, and pre-blocked for 1 hour with 3% Blocker-A (MSD). Captured protein in the assay plates were then washed and probed with 25 μL per well of […] rabbit monoclonal anti-pY705-STAT3 antibody (STAT3) or […] rabbit monoclonal Anti-pY641-STAT6 antibody (STAT6) in 1% Blocker-A for 1 hour at room temperature with shaking, then washed and probed with 25 ul per well of 1 ug/ml Sulfo-TAG Labeled Goat Anti-Rabbit Antibody (MSD) in 1% Blocker-A for 1 hour at room temperature with shaking. Assay plates were then washed and 150 μL of 1× Read Buffer-T (MSD) was added to each well prior to reading on an SQ120 MSD Plate Reader. Assay signal from each sample was subtracted by the signal from unstimulated control wells and normalized to DMSO control wells. IC50 values were calculated using Graph Pad Prism Dose-Response Nonlinear Regression with variable slope. For both pSTAT3 and pSTAT6 A=≤100 nM; B=>100-1000 nM; C=>1000-3000 nM; and D=>3 μM.

[1] = read-out: pSTAT3 IC50, compound 3 hrs, then 10 ng/mL IL-6 10 min, pY705-STAT3
[2] = compound 3 hrs, then 10 ng/mL IL-6 10 min, pY705-STAT3, read-out: pSTAT3 IC50

T1 sequence (P40763 127-722): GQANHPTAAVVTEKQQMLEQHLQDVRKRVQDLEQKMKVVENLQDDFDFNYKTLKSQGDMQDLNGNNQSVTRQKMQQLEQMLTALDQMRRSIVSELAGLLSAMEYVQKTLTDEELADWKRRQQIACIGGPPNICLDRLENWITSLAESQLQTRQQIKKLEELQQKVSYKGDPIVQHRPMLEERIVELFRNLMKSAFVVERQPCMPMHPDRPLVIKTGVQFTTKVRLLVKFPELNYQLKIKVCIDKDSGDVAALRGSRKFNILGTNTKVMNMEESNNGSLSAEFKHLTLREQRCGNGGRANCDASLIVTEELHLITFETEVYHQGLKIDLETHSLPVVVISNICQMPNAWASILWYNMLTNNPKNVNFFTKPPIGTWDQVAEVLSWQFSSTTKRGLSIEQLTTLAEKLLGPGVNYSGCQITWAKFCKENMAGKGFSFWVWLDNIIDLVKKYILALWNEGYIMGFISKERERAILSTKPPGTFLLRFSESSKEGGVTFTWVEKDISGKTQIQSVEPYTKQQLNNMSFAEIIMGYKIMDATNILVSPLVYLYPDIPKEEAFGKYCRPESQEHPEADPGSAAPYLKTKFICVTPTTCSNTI

SMILES | IC50 (pSTAT3; [2]) | IC50 (STAT3) | IC50 (STAT6) | IC50 (pSTAT3; [1])
O=C(COc1cccc2c1C(=O)N(C1CCC(=O)NC1=O)C2=O)NCCOCCOCCC(=O)NC1(c2ccccn2)CN(C(=O)[C@@H]2CC[C@H]3CCCC[C@H](NC(=O)c4cc5cc(C(F)(F)P(=O)(O)O)ccc5s4)C(=O)N32)C1 (stereo partly drawn) [Compound 30, ((2-(((3S,6S,10aR)-3-(3-(3-(2-(2-(2-((2-(2,6-dioxopiperidin-3-yl)-1,3-dioxoisoindolin-4-yl)oxy)acetamido)ethoxy)ethoxy)propanamido)-3-(pyridin-2-yl)azetidine-1-carbonyl)-5-oxodecahydropyrrolo[1,2-a]azocin-6-yl)carbamoyl)benzo[b]thiophen-5-yl)difluoromethyl)phosphonic acid] | – | < 0.1 µM | 3 to 30 µM | > 3 µM
Cc1ncsc1-c1ccc([C@H](C)NC(=O)[C@@H]2C[C@@H](O)CN2C(=O)[C@@H](NC(=O)COCCOCC(=O)NC2(c3ccccn3)CN(C(=O)[C@@H]3CC[C@H]4CCCC[C@H](NC(=O)c5cc6cc(C(F)(F)P(=O)(O)O)ccc6s5)C(=O)N43)C2)C(C)(C)C)cc1 [Compound 31, (difluoro(2-(((3S,6S,10aR)-3-(3-(2-(2-(2-(((S)-1-((2S,4R)-4-hydroxy-2-(((S)-1-(4-(4-methylthiazol-5-yl)phenyl)ethyl)carbamoyl)pyrrolidin-1-yl)-3,3-dimethyl-1-oxobutan-2-yl)amino)-2-oxoethoxy)ethoxy)acetamido)-3-(pyridin-2-yl)azetidine-1-carbonyl)-5-oxodecahydropyrrolo[1,2-a]azocin-6-yl)carbamoyl)benzo[b]thiophen-5-yl)methyl)phosphonic acid] | – | < 0.1 µM | 3 to 30 µM | > 3 µM
Cc1ncsc1-c1ccc(CNC(=O)[C@@H]2C[C@@H](O)CN2C(=O)[C@@H](NCCCCOc2ccncc2C2CN(C(=O)[C@@H]3CC[C@@H]4CCC[C@H](NC(=O)c5cc6cc(C(F)(F)P(=O)(O)O)ccc6s5)C(=O)N43)C2)C(C)(C)C)cc1 [Compound 2, (difluoro(2-(((3S,6S,9aS)-3-(3-(4-(4-(((S)-1-((2S,4R)-4-hydroxy-2-((4-(4-methylthiazol-5-yl)benzyl)carbamoyl)pyrrolidin-1-yl)-3,3-dimethyl-1-oxobutan-2-yl)amino)butoxy)pyridin-3-yl)azetidine-1-carbonyl)-5-oxooctahydro-1H-pyrrolo[1,2-a]azepin-6-yl)carbamoyl)benzo[b]thiophen-5-yl)methyl)phosphonic acid] | > 3 µM | < 0.1 µM | 3 to 30 µM | –
Cc1ncsc1-c1ccc([C@H](C)NC(=O)[C@@H]2C[C@@H](O)CN2C(=O)[C@@H](NC(=O)COCCOCCC(=O)NC2(c3ccccn3)CN(C(=O)[C@@H]3CC[C@H]4CCCC[C@H](NC(=O)c5cc6cc(C(F)(F)P(=O)(O)O)ccc6s5)C(=O)N43)C2)C(C)(C)C)cc1 [Compound 33, (difluoro(2-(((3S,6S,10aR)-3-(3-(3-(2-(2-(((S)-1-((2S,4R)-4-hydroxy-2-(((S)-1-(4-(4-methylthiazol-5-yl)phenyl)ethyl)carbamoyl)pyrrolidin-1-yl)-3,3-dimethyl-1-oxobutan-2-yl)amino)-2-oxoethoxy)ethoxy)propanamido)-3-(pyridin-2-yl)azetidine-1-carbonyl)-5-oxodecahydropyrrolo[1,2-a]azocin-6-yl)carbamoyl)benzo[b]thiophen-5-yl)methyl)phosphonic acid] | – | < 0.1 µM | 3 to 30 µM | > 3 µM

Now from value to molecule, other results behind:

IC50 (pSTAT3; [2]) | SMILES | IC50 (STAT3) | IC50 (STAT6) | IC50 (pSTAT3; [1])
> 3 µM | O=C1CCC(c2ccc(OCCOc3ccncc3C3CN(C(=O)[C@@H]4CC[C@@H]5CCC[C@H](NC(=O)c6cc7cc(C(F)(F)P(=O)(O)O)ccc7s6)C(=O)N54)C3)cc2)C(=O)N1 (stereo partly drawn) [Compound 9, ((2-(((3S,6S,9aS)-3-(3-(4-(2-(4-(2,6-dioxopiperidin-3-yl)phenoxy)ethoxy)pyridin-3-yl)azetidine-1-carbonyl)-5-oxooctahydro-1H-pyrrolo[1,2-a]azepin-6-yl)carbamoyl)benzo[b]thiophen-5-yl)difluoromethyl)phosphonic acid] | < 0.1 µM | 3 to 30 µM | –
> 3 µM | O=C1CCC(c2ccc(OCC(=O)N3CCN(c4ccncc4C4CN(C(=O)[C@@H]5CC[C@@H]6CCC[C@H](NC(=O)c7cc8cc(C(F)(F)P(=O)(O)O)ccc8s7)C(=O)N65)C4)CC3)cc2)C(=O)N1 (stereo partly drawn) [Compound 28, ((2-(((3S,6S,9aS)-3-(3-(4-(4-(2-(4-(2,6-dioxopiperidin-3-yl)phenoxy)acetyl)piperazin-1-yl)pyridin-3-yl)azetidine-1-carbonyl)-5-oxooctahydro-1H-pyrrolo[1,2-a]azepin-6-yl)carbamoyl)benzo[b]thiophen-5-yl)difluoromethyl)phosphonic acid] | < 0.1 µM | 3 to 30 µM | –
0.1 to 1 µM | Cn1c(=O)n(C2CCC(=O)NC2=O)c2ccc(C#CCCC3CCN(c4ccncc4C4CN(C(=O)[C@@H]5CC[C@@H]6CCC[C@H](NC(=O)c7cc8cc(C(F)P(=O)(O)O)ccc8s7)C(=O)N65)C4)CC3)cc21 (stereo partly drawn) [Compound 36, ((2-(((3S,6S,9aS)-3-(3-(4-(4-(4-(1-(2,6-dioxopiperidin-3-yl)-3-methyl-2-oxo-2,3-dihydro-1H-benzo[d]imidazol-5-yl)but-3-yn-1-yl)piperidin-1-yl)pyridin-3-yl)azetidine-1-carbonyl)-5-oxooctahydro-1H-pyrrolo[1,2-a]azepin-6-yl)carbamoyl)benzo[b]thiophen-5-yl)fluoromethyl)phosphonic acid] | < 0.1 µM | > 30 µM | –
> 3 µM | CN(CCOc1ccc(C2CCC(=O)NC2=O)cc1)c1ccncc1C1CN(C(=O)[C@@H]2CC[C@@H]3CCC[C@H](NC(=O)c4cc5cc(C(F)(F)P(=O)(O)O)ccc5s4)C(=O)N32)C1 (stereo partly drawn) [Compound 21, ((2-(((3S,6S,9aS)-3-(3-(4-((2-(4-(2,6-dioxopiperidin-3-yl)phenoxy)ethyl)(methyl)amino)pyridin-3-yl)azetidine-1-carbonyl)-5-oxooctahydro-1H-pyrrolo[1,2-a]azepin-6-yl)carbamoyl)benzo[b]thiophen-5-yl)difluoromethyl)phosphonic acid] | < 0.1 µM | 3 to 30 µM | –
